Patent US20140289973A1, “1-Hexyl-1H-Pyrazole-4,5-Diamine Hemisulfate, and Its Use in Dyeing Compositions” (The Procter & Gamble Company, priority 2012, published 2014)

Test: Storage stability of C6-pyrazole salts, HPLC measurement of dimer formation
Type: physicochemical
Conditions: for Amount of dimers at the time point t0: t0, sample of about 1.5 g spread on filter paper, HPLC, dimer of formula (II); for Amount of dimers at the time point t1: t1, 23 days in closed dark storage room at 21° C., controlled humidity; for Amount of dimers at the time point t2: t2, 26 days: 23 days dark, then 3 days without light protection under lab hood at room temperature, higher air humidity; for Amount of dimers at the time point t3: t3, 31 days: 5 extra days under the same conditions as t2
Description: As summarized in the table below, three 1-hexyl-1H-pyrazole-4,5-diamine salts were synthesized through precipitation of the free base in presence of the corresponding acids and purification to obtain the hemisulfate, sulfate and dihydrochloride salts. Each sample was then placed on paper.
In order to measure and compare the stability of the three different salts, a small amount of each sample was taken at four different time points and an HPLC analysis was conducted in order to measure the formation of the undesired dimer of formula (II).

| SMILES | Amount of dimers at the time point t0 | Amount of dimers at the time point t1 | Amount of dimers at the time point t2 | Amount of dimers at the time point t3 | Rate of formation of the dimer impurity (compared with the sulfate and dihydrochloride salts, storage conditions of table 1) | Stability compared with the corresponding sulfate and dihydrochloride salts (conditions of storage described in table 1) |
| --- | --- | --- | --- | --- | --- | --- |
| CCCCCCn1ncc(N)c1N.Cl.Cl [C6-Pyrazole x 2 HCl] | 45 ppm | 511 ppm | 772 ppm | 1323 ppm |  |  |
| CCCCCCn1ncc(N)c1N.O=S(=O)(O)O [C6-Pyrazole sulfate] | 11 ppm | 461 ppm | 726 ppm | 1083 ppm |  |  |
| CCCCCCn1ncc(N)c1N.CCCCCCn1ncc(N)c1N.O=S(=O)(O)O [C6-Pyrazole hemisulfate, 1-hexyl-1H-pyrazole-4,5-diamine hemisulfate] | 6 ppm | 37 ppm | 43 ppm | 74 ppm | much lower | more stable |
